Patent US11160808B2, “Compounds that enhance Atoh1 expression” (Massachusetts Eye & Ear Infirmary, priority 2008, dated 2021)

Assays:
[1] = system: Math1 enhancer and minimal promoter Luciferase reporter in HEK cells; test: Math1 Luciferase reporter assay in HEK cells; assay type: cell-based, human; details: for IC50 / maximal fold induction: Homo sapiens, HEK293; for IC50: read-out: IC50; for maximal fold induction: read-out: Maximum (Fold DMSO)
From the text: A human embryonic kidney (HEK) cell line stably expressing a Luciferase gene controlled by an Math1 enhancer and minimal promoter was used in a high-throughput screen (HTS) of 144,000 small molecules to identify compounds that increase Math1 expression (i.e., transcription and/or translation). Such compounds can be used to increase the conversion of stem cells, progenitor cells, and support cells to or towards a hair cell. Screens to identify such compounds are described by Li et al., (U.S. Publication No. 2005/0287127) and Li et al., (U.S. application Ser. No. 11/953,797).
HEK cells stably expressing the Math1 Luciferase reporter were plated onto 384 well plates and cultured overnight in medium containing 10% fetal calf serum (FCS). Activation of the Math1 enhancer was measured by the increase in luminescence on a plate reader following addition of a luciferase detection agent. The assay was optimized for cell number, time of incubation, volume of medium, cell lysis reagent and luciferase reagent. Luminescence levels were compared in cells with the Math1-luciferase construct with and without retinoic acid (1 μM), and/or a luciferase construct with and without the Math1 enhancer and minimal promoter region.
To improve assay sensitivity, and reduce the coefficient of variation (CV), a more sensitive luciferase reagent (BriteLite luciferase reporter assay reagent, Perkin Elmer) was used, and Triton-X-100 was added to the lysis reagent to ensure complete lysis of the cells. Following these changes a CV of 4.2% was recorded. These conditions were used for all high-throughput screens. The luminescence threshold for a compound to be positive was defined as a 2-fold increase above the control (e.g., cells exposed to DMSO).
Cells were seeded on 384 well plates and allowed to attach overnight at 37° C. with 5% CO2 in the absence of growth factors. Math1 activation was measured by the increase in luminescence on a plate reader following addition of a luciferase detection reagent. Luminescence was assessed at 24, 48, and 72 hours. These conditions were used to screen 144,000 compounds contained in the small molecule libraries at Harvard University's Laboratory for Drug Discovery in Neurodegeneration (LDDN).
HTS were performed using HEK-Math1 cells seeded in 384 well plates. One compound was added per well using pin transfer. The final concentration of each compound was […]. Cell were incubated in the presence of a compound for 48 hours at 37° C. with 5% CO2. Cell lysates then were collected and bioluminescence determined. Luminescence values were compared normalized against DMSO.
About 20000 compounds were screened per week in 50 plates of 384 well with the aid of robotic systems (Beckman Biomek FX). Compounds were screened at an average final concentration of 0.7 μM (in 0.04% DMSO) with each plate containing 16 wells of 1 μM retinoic acid, as a positive control, and 16 wells of 0.04% DMSO, as a vehicle control. Percent activation of luminescence in the test compounds was determined for cells treated with the compounds against cells treated with DMSO.
Ten compounds, randomly selected from the group of 110 compounds identified in Example 2, were further evaluated, as follows. HEK cells were plated on 96 well plates at a density of 100000 cells per well. One day after plating, 0.1, 1, and 5 μM of each positive compound was added per well in a 10% fetal bovine serum (FBS) DMEM solution. Cells were then lysed 48 hours after addition of the compound and Math1 expression was analyzed using a luciferase reporter assay, as described above, and real-time PCR.
The half maximal inhibitory concentration (IC50) and median lethal dose or Lethal Dose, 50% (LD50) were determined for each of the compounds identified in Example 2 using standard laboratory techniques. IC50 is a measure of the effectiveness of a compound in inhibiting biological or biochemical function. LD50 is the amount of a compound required to kill half the members of a tested population.

[2] = LD50 (median lethal dose) determination; assay type: cell-based
From the text: IC50 is a measure of the effectiveness of a compound in inhibiting biological or biochemical function. LD50 is the amount of a compound required to kill half the members of a tested population.

Row | Structure (SMILES) | IC50 [1] | maximal fold induction [1] | LD50 [2] | increase in luciferase activity ([1]; 1 μM, compared to non-treated cells)
1 | NC(=O)c1sc2nc3c(cc2c1N)CCCCC3 [CP-0066751, 3-amino-6,7,8,9-tetrahydro-5H-cyclohepta[e]thieno[2,3-b]pyridine-2-carboxamide] | 1000 nM | 1.9 | >10 µM | –
2 | CCc1c(C)[nH]c2cc(-c3ccc(Cl)cc3)nn2c1=O [CP-0063375, 2-(4-chlorophenyl)-6-ethyl-5-methylpyrazolo[1,5-a]pyrimidin-7(4H)-one] | 2200 nM | 1.9 | >10 µM | –
3 | COc1ccc(-c2csc(-c3c(C)noc3N)n2)cc1 [CP-0105343, 4-(4-(4-methoxyphenyl)thiazol-2-yl)-3-methylisoxazol-5-amine] | 3000 nM | 2 | >10 µM | –
4 | Cn1nccc1C(=O)Nc1nc2ccccc2s1 [CP-0067233, N-(benzo[d]thiazol-2-yl)-1-methyl-1H-pyrazole-5-carboxamide] | 2000 nM | 1.8 | >10 µM | –
5 | O=C(NCCSc1ccccc1)c1cncc(Br)c1 [CP-0089966, 5-bromo-N-(2-(phenylthio)ethyl) nicotinamide] | > 10000 nM | 2.2 | >10 µM | –
6 | O=C(NCC1CCCO1)c1sc2ccccc2c1Cl (stereo not shown) [CP-0068577, 3-chloro-N-((tetrahydrofuran-2-yl)methyl)benzo[b]thio-phene-2-carboxamide] | 1000 nM | 1.6 | >10 µM | –
7 | CCN(CC)C(=O)c1cc2cc3cc(OC)ccc3nc2s1 [CP-0076627, N,N-diethyl-6-methoxythieno [2,3-b]quinoline-2-carboxamide] | 5000 nM | 2.2 | >10 µM | –
8 | Cc1cc(Cl)ccc1OCc1nc(-c2ccncc2)no1 [CP-0067108, 5-((4-chloro-2-methylphenoxy)methyl)-3-(pyridin-4-yl)-1,2,4-oxadiazole] | 3000 nM | 1.8 | >10 µM | –
9 | Nc1nc(-c2ccc(-c3ccccc3)cc2)cs1 [CP-0072036, 4-(biphenyl-4-yl) thiazol-2-amine] | 1500 nM | 1.7 | >10 µM | –
10 | CC(=O)Nc1ccc2nc(NC(=O)c3ccco3)sc2c1 [CP-0105777, N-(6-acetamidobenzo[d]thiazol-2-yl)furan-2-carboxamide] | 300 nM | 2 | >10 µM | –
11 | CCn1ccc(C(=O)Nc2cc(Cl)ccc2Cl)n1 [CP-0070844, N-(2,5-dichlorophenyl)-1-ethyl-1H-pyrazole-3-carboxamide] | 2000 nM | 1.7 | >10 µM | –
12 | O=C(Nc1ccc(I)cc1)c1ccco1 [CP-0072253, N-(4-iodophenyl)furan-2-carboxamide] | 1300 nM | 2 | >10 µM | –
13 | O=C(Nc1ccccc1Cl)C(=O)c1c[nH]c2ccccc12 [CP-0078448, N-(2-chlorophenyl)-2-(1H-indol-3-yl)-2-oxoacetamide] | > 10000 nM | 1.9 | >10 µM | –
14 | CC(C)COc1ccc(C2Nc3ccccc3C(=O)N2c2ccc3ccccc3c2)cc1 (stereo not shown) [CP-0034360, 2-(4-isobutoxyphenyl)-3-(naphthalen-2-yl)-2,3-dihydroquinazolin-4(1H)-one] | 1000 nM | 2 | >10 µM | –
15 | COc1ccccc1N1CCN(c2ccc3ccccc3n2)CC1 [CP-0087799, 2-(4-(2-methoxyphenyl)piperazin-1-yl)quinoline] | 1000 nM | 2.1 | >10 µM | –
16 | O=C(NCCOc1ccc(F)cc1)c1cccs1 [CP-0072271, N-(2-(4-fluorophenoxy)ethyl)thio-phene-2-carboxamide] | 1000 nM | 2.2 | >10 µM | –

Row | Structure (SMILES) | IC50 [1] | maximal fold induction [1] | LD50 [2] | increase in luciferase activity ([1]; 1 μM, compared to non-treated cells)
17 | COc1ccccc1OCc1nc2ccccc2[nH]1 [CP-0069961, 2-((2-methoxyphenoxy)methyl)-1H-benzo[d]imidazole] | 2000 nM | 1.7 | >10 µM | –
18 | O=C(Cn1nnc2ccccc21)NC1Cc2ccccc2C1 [CP-0009883, 2-(1H-benzo[d][1,2,3]triazol-1-yl)-N-(2,3-dihydro-1H-inden-2-yl)acetamide] | 2500 nM | 2.3 | >10 µM | –
19 | COc1ccccc1-c1nc(-c2ccc(C)cc2)no1 [CP-0067246, 5-(2-methoxyphenyl)-3-p-tolyl-1,2,4-oxadiazole] | 1800 nM | 1.5 | >10 µM | –
20 | Cc1cccc(/C(N)=N/OC(=O)c2cccnc2)c1 [CP-0069934, (Z)-3-methyl-N′-(nicotinoyloxy) benzimidamide] | 2000 nM | 1.7 | >10 µM | –
21 | CCN(CC)c1ncnc2c1cnn2-c1cccc(C)c1 [CP-0079810, N,N-diethyl-1-m-tolyl-1H-pyrazolo[3,4-d]pyrimidin-4-amine] | 3000 nM | 2.3 | >10 µM | –
22 | COc1ccc(-c2cn3ccsc3n2)cc1 [CP-0061401, 6-(4-methoxyphenyl) imidazo[2,1-b]thiazole] | 600 nM | 1.8 | >10 µM | –
23 | O=c1ccc2ccc(OCc3ccc(F)cc3)cc2o1 [CP-0063508, 7-(4-fluorobenzyloxy)-2H-chromen-2-one] | > 10000 nM | 1.7 | >10 µM | –
24 | Cc1ccc(-c2nc(-c3cccnc3)no2)c(Cl)c1 [CP-0068929, 5-(2-chloro-4-methylphenyl)-3-(pyridin-3-yl)-1,2,4-oxadiazole] | 400 nM | 2 | >10 µM | –
25 | CC(=O)c1sc(-c2ccc(C(C)(C)C)cc2)cc1N [CP-0008545, 1-(3-amino-5-(4-tert-butylphenyl)thiophen-2-yl)ethanone] | 400 nM | 2.5 | >10 µM | –
26 | COc1ccc(-c2nc3ccc(Cl)cc3n2OCc2cc(C)cc(C)c2)cc1 [CP-0000554, 6-chloro-1-(3,5-dimethylbenzyloxy)-2-(4-methoxyphenyl)-1H-benzo[d]imidazole] | 400 nM | 2 | >30 µM | –
27 | O=C(Nc1ccc(Cl)cn1)c1sc2ccccc2c1Cl [CP-0064314, 3-chloro-N-(5-chloropyridin-2-yl)benzo[b]thiophene-2-carboxamide] | > 10000 nM | 1.7 | >10 µM | –
28 | Cc1oc(C(C)(C)C)cc1-c1cc(NC(=O)c2ccccc2)[nH]n1 [CP-0104765, N-(3-(5-tert-butyl-2-methylfuran-3-yl)-1H-pyrazol-5-yl)benzamide] | 400 nM | 2 | >10 µM | –
29 | COc1cccc2c1OCC(C(=O)Nc1ccc(Cl)cc1Cl)=C2 [CP-0000928, N-(2,4-dichlorophenyl)-8-methoxy-2H-chromene-3-carboxamide] | 300 nM | 2 | >10 µM | –
30 | Brc1ccc(-c2nc(-c3cccnc3)no2)cc1 [CP-0070367, 5-(4-bromophenyl)-3-(pyridin-3-yl)-1,2,4-oxadiazole] | 2000 nM | 1.7 | >10 µM | –
31 | CC1=C(/C=C/C(C)=C/C=C/C(C)=C/C(=O)O)C(C)(C)CCC1 [retinoic acid, reference compound] | – | – | – | 1.8 fold
